These compounds were tested against T1, human CTPS1 (Homo sapiens, UniProt P17812) (assay: Human CTPS1 enzyme inhibition, ADP-Glo Max assay). Conditions: human full length CTPS1, read-out: CTPS1 (Human CTPS1 Enzyme Inhibition data grouped by potency range, IC50).
T1 construct: purchased Proteros biostructures GmbH
T1 sequence (P17812 1-591): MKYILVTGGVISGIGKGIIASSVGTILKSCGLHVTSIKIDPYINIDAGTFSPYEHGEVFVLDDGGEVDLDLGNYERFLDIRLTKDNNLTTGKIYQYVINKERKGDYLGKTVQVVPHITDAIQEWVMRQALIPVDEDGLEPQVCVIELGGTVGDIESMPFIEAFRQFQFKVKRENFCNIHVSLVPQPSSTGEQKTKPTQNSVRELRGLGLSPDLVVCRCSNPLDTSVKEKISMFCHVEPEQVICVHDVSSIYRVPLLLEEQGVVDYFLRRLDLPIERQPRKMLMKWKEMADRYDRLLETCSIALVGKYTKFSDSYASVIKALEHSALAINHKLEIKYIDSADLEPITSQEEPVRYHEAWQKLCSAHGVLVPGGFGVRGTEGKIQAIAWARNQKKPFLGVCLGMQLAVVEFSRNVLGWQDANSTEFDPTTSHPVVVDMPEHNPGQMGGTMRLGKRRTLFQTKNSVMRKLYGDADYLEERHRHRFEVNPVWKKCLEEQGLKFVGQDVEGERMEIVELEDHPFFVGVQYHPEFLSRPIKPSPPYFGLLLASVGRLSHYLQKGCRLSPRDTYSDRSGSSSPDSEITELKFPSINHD
Type: biochemical
Experimental: Biological Example 1—Human CTPS1 Enzyme Inhibition
The enzyme inhibitory activities of compounds invented against the target of interest were determined using the ADP-Glo™ Max assay (Promega, UK). Assays for human CTPS1 were performed in 1× assay buffer containing 50 mM Tris, 10 mM MgCl2, 0.01% Tween-20, pH to 8.0 accordingly. Finally, immediately before use, L-cysteine was added to the 1× assay buffer to a final concentration of 2 mM. All reagents are from Sigma-Aldrich unless specified otherwise. Human full length active C-terminal FLAG-Hiss-tag CTPS1 (UniProtKB-P17812, CTPS[1-591]-[…]) was obtained from Proteros biostructures GmbH.
3× human CTPS1 protein was prepared in 1× assay buffer to the final working protein concentration required for the reaction. A 2 uL volume per well of 3× human CTPS1 protein was mixed with 2 uL per well of 3× test compound (compound prepared in 1× assay buffer to an appropriate final 3× compound concentration respective to the concentration response curve designed for the compounds under test) for 10 minutes at 25° C. The enzymatic reaction was then initiated by addition of a 2 uL per well volume of a pre-mixed substrate mix (UltraPure ATP from ADP-Glo™ Max kit (0.31 mM), GTP (0.034 mM), UTP (0.48 mM) and L-glutamine (0.186 mM)) and the mixture was incubated for an appropriate amount of time within the determined linear phase of the reaction at 25° C. under sealed plate conditions with constant agitation at 500 revolutions per minute (rpm). ADP-GIo™ Max reagent was added for 60 minutes (6 uL per well) and subsequently ADP-Glo™ Max development reagent was added for 60 minutes (12 uL per well) prior to signal detection in a microplate reader (EnVision® Multilabel Reader, Perkin Elmer). Following each reagent addition over the course of the assay, assay plates were pulse centrifuged for 30 seconds at 500 rpm.
In all cases, the enzyme converts ATP to ADP and the ADP-Glo™ Max reagent subsequently depletes any remaining endogenous ATP in the reaction system. The ADP-Glo™ Max detection reagent converts the ADP that has been enzymatically produced back into ATP and using ATP as a substrate together with luciferin for the enzyme luciferase, light is generated which produces a detectable luminescence. […] The percentage inhibition produced by each concentration of compound was calculated using the equation shown below: […]
Percentage inhibition was then plotted against compound concentration, and the 50% inhibitory concentration (IC50) was determined from the resultant concentration-response curve.

SMILES | IC50
COCCC(NC(=O)c1ccc(-c2cncc(F)c2)cc1)c1csc(NS(=O)(=O)C2CC2)n1 (stereo not shown) [Example R85, N-(1-(2-(cyclopropanesulfonamido)thiazol-4-yl)-3-methoxypropyl)-4-(5-fluoropyridin-3-yl)benzamide] | 100 to 1000 nM
CCC(NC(=O)c1ccc(-c2cnccn2)cc1)c1csc(NS(=O)(=O)C2CC2)n1 (racemic) [Example R67, N-(1-(2-(cyclopropanesulfonamido)thiazol-4-yl)propyl)-4-(pyrazin-2-yl)benzamide] | 100 to 1000 nM
CC(C)(NC(=O)c1ccc(-c2cncc(C(F)(F)F)n2)cc1)c1csc(NS(=O)(=O)C2CC2)n1 [Example R51, N-(2-(2-(cyclopropanesulfonamido)thiazol-4-yl)propan-2-yl)-4-(6-(trifluoromethyl)pyrazin-2-yl)benzamide] | < 100 nM
CC(C)(NC(=O)c1ccc(-c2cncc(F)c2)cc1)c1csc(NS(=O)(=O)C2CC2)n1 [Example R36, N-(2-(2-(cyclopropanesulfonamido)thiazol-4-yl)propan-2-yl)-4-(5-fluoropyridin-3-yl)benzamide] | 100 to 1000 nM
Cc1sc(NS(=O)(=O)C2CC2)nc1C(C)(C)NC(=O)c1ccc(-c2cncc(C(F)(F)F)n2)cc1 [Example R78, N-(2-(2-(cyclopropanesuIfonamido)-5-methylthiazol-4-yl)propan-2-yl)-4-(6-(trifluoromethyl)pyrazin-2-yl)benzamide] | 100 to 1000 nM
Cc1cncc(-c2ccc(C(=O)NC(C)(C)c3csc(NS(=O)(=O)C4CC4)n3)cc2)n1 [Example R53, N-(2-(2-(cyclopropanesulfonamido)thiazol-4-yl)propan-2-yl)-4-(6-methylpyrazin-2-yl)benzamide] | 100 to 1000 nM
CCC(CC)(NC(=O)c1ccc(-c2cncc(C(F)(F)F)c2)cc1)c1csc(NS(=O)(=O)C2CC2)n1 [Example R15, N-(3-(2-(cyclopropanesulfonamido)thiazol-4-yl)pentan-3-yl)-4-(5-(trifluoromethyl)pyridin-3-yl)benzamide] | < 100 nM
CC(C)(NC(=O)c1ccc(-c2cncc(C(F)(F)F)n2)cn1)c1csc(NS(=O)(=O)C2CC2)n1 [Example R24, N-(2-(2-(cyclopropanesulfonamido)thiazol-4-yl)propan-2-yl)-5-(6-(trifluoromethyl)pyrazin-2-yl)picolinamide] | 100 to 1000 nM
CCOc1cncc(-c2ccc(C(=O)NC3(c4csc(NS(=O)(=O)C5CC5)n4)CC3)c(F)c2)n1 [Example R82, N-(1-(2-(cyclopropanesulfonamido)thiazol-4-yl)cyclopropyl)-4-(6-ethoxypyrazin-2-yl)-2-fluorobenzamide] | < 100 nM
CC(C)Oc1cncc(-c2ccc(C(=O)NCc3csc(NS(=O)(=O)C4CC4)n3)cc2)n1 [Example R13, N-((2-(cyclopropanesulfonamido)thiazol-4-yl)methyl)-4-(6-isopropoxypyrazin-2-yl)benzamide] | < 100 nM
CC(C)Oc1cncc(-c2ccc(C(=O)NC(C)(C)c3csc(NS(=O)(=O)C4CC4)n3)cc2)n1 [Example R56, N-(2-(2-(cyclopropanesulfonamido)thiazol-4-yl)propan-2-yl)-4-(6-isopropoxypyrazin-2-yl)benzamide] | < 100 nM
Cc1cc(-c2cncc(C(F)(F)F)n2)ccc1C(=O)NC1(c2csc(NS(=O)(=O)C3CC3)n2)CC1 [Example R83, N-(1-(2-(cyclopropanesulfonamido)thiazol-4-yl)cyclopropyl)-2-methyl-4-(6-(trifluoromethyl)pyrazin-2-yl)benzamide] | < 100 nM
Cc1cc(-c2cncc(C(F)(F)F)n2)ccc1C(=O)NC(C)(C)c1nc(NS(=O)(=O)C2CC2)sc1Cl [Example R77, N-(2-(5-chloro-2-(cyclopropanesulfonamido)thiazol-4-yl)propan-2-yl)-2-methyl-4-(6-(trifluoromethyl)pyrazin-2-yl)benzamide] | 1000 to 10000 nM

More lines, now with the values ahead:

IC50 | SMILES
< 100 nM | CCOc1cncc(-c2ccc(C(=O)NC(C)(C)c3csc(NS(=O)(=O)C4CC4)n3)cc2)n1 [Example R55, N-(2-(2-(cyclopropanesulfonamido)thiazol-4-yl)propan-2-yl)-4-(6-ethoxypyrazin-2-yl)benzamide]
1000 to 10000 nM | Cc1ncccc1-c1ccc(C(=O)NC(C)(C)c2csc(NS(=O)(=O)C3CC3)n2)cc1 [Example R33]
< 100 nM | CCC(NC(=O)c1ccc(-c2cncc(C(F)(F)F)c2)cc1)c1csc(NS(=O)(=O)C2CC2)n1 (single isomer, unassigned) [Example R4, N-(1-(2-(cyclopropanesulfonamido)thiazol-4-yl)propyl)-4-(5-(trifluoromethyl)pyridin-3-yl)benzamide]
< 100 nM | CCOc1cncc(-c2ccc(C(=O)NC3(c4csc(NS(=O)(=O)C5CC5)n4)CC3)nc2)n1 [Example R80, N-(1-(2-(cyclopropanesulfonamido)thiazol-4-yl)cyclopropyl)-5-(6-ethoxypyrazin-2-yl)picolinamide]
100 to 1000 nM | CCC(NC(=O)c1ccc(-c2cncc(OC(C)C)n2)cc1F)c1csc(NS(=O)(=O)C2CC2)n1 (racemic) [Example R64, N-(1-(2-(cyclopropanesulfonamido)thiazol-4-yl)propyl)-2-fluoro-4-(6-isopropoxypyrazin-2-yl)benzamide]
< 100 nM | CCOc1cncc(-c2ccc(C(=O)NCc3csc(NS(=O)(=O)C4CC4)n3)cc2)n1 [Example R14, N-((2-(cyclopropanesulfonamido)thiazol-4-yl)methyl)-4-(6-ethoxypyrazin-2-yl)benzamide]
< 100 nM | COc1cncc(-c2ccc(C(=O)NC(C)(C)c3csc(NS(=O)(=O)C4CC4)n3)cc2)n1 [Example R54, N-(2-(2-(cyclopropanesulfonamido)thiazol-4-yl)propan-2-yl)-4-(6-methoxypyrazin-2-yl)benzamide]
< 100 nM | CC(C)Oc1cncc(-c2ccc(C(=O)NC(C)(C)c3csc(NS(=O)(=O)C4CC4)n3)c(F)c2)n1 [Example R43, N-(2-(2-(cyclopropanesulfonamido)thiazol-4-yl)propan-2-yl)-2-fluoro-4-(6-isopropoxypyrazin-2-yl)benzamide]
< 100 nM | CCC(NC(=O)c1ccc(-c2cncc(F)c2)cc1)c1csc(NS(=O)(=O)C2CC2)n1 (single isomer, unassigned) [Example R69, N-(1-(2-(cyclopropanesulfonamido)thiazol-4-yl)propyl)-4-(5-fluoropyridin-3-yl)benzamide]
100 to 1000 nM | CCc1cncc(-c2ccc(C(=O)NC(CCOC)c3csc(NS(=O)(=O)C4CC4)n3)c(F)c2)n1 (stereo not shown) [Example R86, N-(1-(2-(cyclopropanesulfonamido)thiazol-4-yl)-3-methoxypropyl)-4-(6-ethylpyrazin-2-yl)-2-fluorobenzamide]
< 100 nM | COCCC(NC(=O)c1ccc(-c2cncc(OC(C)C)n2)cc1F)c1csc(NS(=O)(=O)C2CC2)n1 (stereo not shown) [Example R89, N-(1-(2-(cyclopropanesulfonamido)thiazol-4-yl)-3-methoxypropyl)-2-fluoro-4-(6-isopropoxypyrazin-2-yl)benzamide]
1000 to 10000 nM | CCOc1cncc(-c2ccc(C(=O)NC(C)(C)c3nc(NS(=O)(=O)C4CC4)sc3C)nc2)n1 [Example R72, N-(2-(2-(cyclopropanesuIfonamido)-5-methylthiazol-4-yl)propan-2-yl)-5-(6-ethoxypyrazin-2-yl)picolinamide]

From patent US11505547B2, “Compounds” (STEP PHARMA S.A.S., priority 2017, dated 2022)
